The CheMixHub drug solubility set

Experiment: xn = mol fraction of the nth substance listed, in the solute-free solvent

CC(CCc1ccccc1)NCC(O)c1ccc(O)c(C(N)=O)c1.Cl (centres undefined) + CO + CC#N
solubility (g/100 g solution)
Conditions	288.15 K	293.15 K	298.15 K	303.15 K	308.15 K	313.15 K	318.15 K	323.15 K	328.15 K
x2 = 0.2426	0.0461	0.0674	0.0984	0.137	0.19	0.268	0.388	0.533	0.751
x2 = 0.3544	0.126	0.167	0.222	0.282	0.389	0.49	0.639	0.847	1.1
x2 = 0.4606	0.172	0.234	0.323	0.436	0.58	0.766	1.03	1.38	1.81
x2 = 0.5616	0.411	0.533	0.674	0.884	1.1	1.4	1.74	2.17	2.71
x2 = 0.6577	0.787	0.998	1.23	1.54	1.92	2.35	2.89	3.46	4.2
x2 = 0.7493	1.73	2.02	2.44	2.83	3.37	3.94	4.42	5.29	6.03
x2 = 0.8367	2.23	2.77	3.37	4.11	5.04	6.01	7.18	8.54	10.1
x2 = 0.9202	4.34	5.22	6.18	7.32	8.68	10.1	11.7	13.5	15.6

Cl.N=C(N)N + CO + CCCO
solubility (g/100 g solution)
Conditions	278.15 K	283.15 K	288.15 K	293.15 K	298.15 K	303.15 K	308.15 K	313.15 K	318.15 K	323.15 K
x2 = 0.1726	9.26	10.3	11.5	12.6	13.3	14.4	15.6	17	18.2	19.9
x2 = 0.4458	15.1	16.1	17.4	18.8	20.6	22	23.4	25.3	26.3	28.2
x2 = 0.6523	22.2	23.4	24.9	26.3	27.8	29.2	30.7	32.4	34.1	35.6
x2 = 0.8138	28.3	29.7	31.4	33.1	34.5	36.2	37.6	39.5	40.9	42.3
x2 = 0.9441	33.4	35.1	36.8	38.3	40.2	42.1	43.6	45.5	47.1	48.8

Cc1[nH]c(=O)c(C#N)cc1-c1ccncc1 + CCO + O
solubility (g/100 g solution)
Conditions	278.15 K	283.15 K	288.15 K	293.15 K	298.15 K	303.15 K	308.15 K	313.15 K	318.15 K	323.15 K
x2 = 0.04165	0.000675	0.000813	0.000966	0.00114	0.00133	0.00153	0.00174	0.00198	0.00224	0.00254
x2 = 0.08908	0.000855	0.00103	0.00123	0.00144	0.00169	0.00194	0.00221	0.00251	0.00285	0.00321
x2 = 0.1436	0.00114	0.00138	0.00163	0.00192	0.00225	0.00258	0.00294	0.00333	0.00377	0.00426
x2 = 0.2068	0.00154	0.00186	0.00221	0.00259	0.00303	0.00348	0.00395	0.00447	0.00505	0.0057
x2 = 0.2812	0.00206	0.00239	0.00288	0.00338	0.0039	0.00453	0.00517	0.00586	0.00662	0.00754
x2 = 0.3698	0.00266	0.00322	0.00381	0.00446	0.00518	0.00596	0.00676	0.00763	0.0086	0.00968
x2 = 0.4772	0.00326	0.00385	0.00461	0.0054	0.00629	0.00717	0.00815	0.00921	0.0105	0.0119
x2 = 0.6101	0.00373	0.00451	0.0054	0.00637	0.00745	0.00844	0.00959	0.0108	0.0122	0.0138
x2 = 0.7788	0.00412	0.00503	0.00602	0.00705	0.00817	0.00928	0.0105	0.0119	0.0135	0.0153

Cc1c(Br)cccc1C(=O)O + CN(C)C=O + CC#N
solubility (g/100 g solution)
Conditions	x2 = 0.106	x2 = 0.224	x2 = 0.355	x2 = 0.502	x2 = 0.668	x2 = 0.858
278.15 K	6.4	10.6	14.2	17.6	20.8	23.6
283.15 K	7.69	12.4	16.8	20.7	24.4	25.8
288.15 K	8.95	14.9	19.8	24.3	28.2	32
293.15 K	11	17.3	23	28	32.5	36.6
298.15 K	12.6	20.2	26.5	32.1	37.1	41.6
303.15 K	14.5	23.3	30.5	36.5	42.1	47.1
308.15 K	17.1	26.8	34.4	41.3	47.2	52.7
313.15 K	19.5	30.5	38.9	46.3	52.7	58.5
318.15 K	22.6	34.5	43.6	51.4	58.1	64.3
323.15 K	26	38.8	48.6	56.7	63.8	70.3
328.15 K	29.2	43.1	53.5	62	69.3	76

Nc1[nH]c(=O)ncc1F + CN(C)C=O + CC(C)O
solubility (g/100 g solution)
Conditions	283.15 K	288.15 K	293.15 K	298.15 K	303.15 K	308.15 K	313.15 K	318.15 K	323.15 K
x2 = 0.0837	0.0457	0.057	0.0702	0.0871	0.105	0.126	0.149	0.174	0.203
x2 = 0.1705	0.0578	0.0715	0.0887	0.107	0.128	0.152	0.178	0.209	0.245
x2 = 0.2605	0.0731	0.0892	0.107	0.13	0.155	0.183	0.214	0.248	0.285
x2 = 0.354	0.0896	0.107	0.127	0.153	0.182	0.214	0.249	0.288	0.333
x2 = 0.4512	0.106	0.126	0.151	0.18	0.213	0.248	0.284	0.327	0.376
x2 = 0.5522	0.121	0.143	0.17	0.203	0.236	0.273	0.315	0.36	0.413
x2 = 0.6573	0.137	0.16	0.189	0.221	0.258	0.298	0.342	0.391	0.447
x2 = 0.7668	0.153	0.18	0.209	0.242	0.281	0.322	0.369	0.426	0.484
x2 = 0.8809	0.173	0.201	0.23	0.267	0.306	0.351	0.402	0.46	0.524
